Results as given in patent EP0189971A2, “Composition containing a thiadiazole derivative and method for treating plants against bacteria” (PALIMPORT LTD., priority 1985, dated 1986).
Read-outs that look alike come from different tables or passages of the source.

What was measured:
Pseudomonas tomato [1] = settings: cupric acetate 0.1 %
Description: In all trials, seed disinfection was carried out by dipping the seeds in different chemical solutions. The variable factors were: • 1. Different times of dipping: 10, 20, 30 and 60 minutes. • 2.. Different temperatures of dipping: room temperature (20°C), and a higher temperature (45°C).
(§1) In this method, the efficacy of the disinfection is examined by a bioassay. After seed disinfection, the seeds are dried and sown in the soil, and kept in a humid cell with suitable temperature. The efficacy of the treatment is determined by the level of infestation in the seedlings.
In tomatoes, disinfection trials were carried out against two bacterial diseases. Most of the work was done in order to examine the efficacy of the mixtures in controlling bacterial specic of tomato caused by Pseudomonas tomato. Later on some trials were carried out against a relatively new disease in Israel - "rotten pith" caused by P. coruoata. Trial 7
Also, different dipping times and temperatures were checked. Efficacy of disinfection was evaluated by assessing the disease appearance in the seedlings which was caused by infection of the treated seeds.

X. campestris = settings: for Percent of infected seedlings: cupric acetate 0.1 %
Description: as §1
Trials were carried out in seeds of cabbage and cauliflower infested with Xanthomonas camoestris. […] Seeds were dipped in all treatments for 10 to 20 minutes at temperatures of 25°C and 45°C.
The efficacy of the disinfection process was checked in a bio assay system.

X. translucens = settings: for Bacteria per gr. seeds: cupric acetate 0.1%, infected seeds
Description: In this method, live bacterial pathogens that survived the seed disinfection, were counted. Treated seeds were dried by vaporization. Five grams of dried seeds from each treatment were ground in a grinder of 20 mesh and transferred to a solution containing 0.1% agar in water and were shaken for 30 minutes. From each sample, 10x dilutions were prepared. From each of the various dilutions, 0.1 ml was taken and placed in a suitable medium in a petri-dish, with a Drigalski stick. After 4 days of incubation at temperature of 27°C, colonies of the bacterial pathogens were counted in each petri-dish.
The assessment of efficacy was carried out by counting of the number of bacteria that remained alive in the seeds after the disinfection and in a bio-assay system. (See Materials and Methods).
In this trial the efficacy of the products in disinfecting wheat seeds was tested at various periods of time from 5 to 60 minutes. Disinfected seeds were compared with seeds treated with water (check) and with seeds that were defined in laboratory as seeds clean from the pathogen. Efficacy of the treatments was measured by counting the amount of bacteria that remained alive in the seeds. The trial was carried out in five replicates.

Pseudomonas tomato [2] = assay: Preventative foliage spraying of tomato seedlings in greenhouse; type: in vivo; settings: for Average level of ill seedlings: Cupric acetate 0.15 %, levels 0-5
Description: The trials were carried out against bacterial diseases in the following crops: • a. In pepper - Bacterial spot of pepper (Xanthomonas vesicatoria). • b. In tomatoes - Bacterial specic of tomato (Pseudomonas tomato). • c. In cauliflower - Black rot (Xanthomonas camoestris). • 2. […].
In trials that were carried out in the greenhouse, plants at age of 3 - 5 leaves that were grown in "speedling system", were used. Plants were allowed to grow in the original trays without contact between them.
About 48 hours before the infection, the bacterial pathogen was transferred (for multiplication) to a suitable growth medium (see materials and methods of para I hereinbefore)at optimal temperature until all the medium was covered by bacteria. Then a suspension of bacteria at concentration of 1 x 10' - […] per cm^2 was prepared. The bacterial suspension was sprayed to runoff with a hand sprayer on to the leaves of the test plants. Spraying was made on dry leaves with the addition of carborundum to the spray solution in order to ensure better infection. In trials where the efficacy of the treatments was evaluated in preventative treatments, the application was given a few hours before the bacterial infection.
In the preventative treatments, the products were applied a few hours before the bacterial infection. In the curative treatments, the application was carried out 20 hours after bacterial infection. After application, when plants dried out they were transferred to a fog chamber with controlled conditions.
In trials that were carried out in the greenhouse, the plants were transferred after the application and infection, to control conditions of fogginess and suitable temperatures for bactena, till the end of the trial.
Infection was evaluated in the seedlings according to the following key: 0 = healthy seedling, without symptoms of disease, 5 = complete coverage of the seedling with spots of disease, or dead seedling. The intermediate degrees were given according to the severity of the disease in the leaves.
In tomatoes, several trials were carried out in greenhouse under conditions of fog chamber and artificial infection in order to evaluate the efficacy of Terrazole (trade mark) and copper, in different rates and combinations, in preventing and controlling bacterial diseases specic of tomato caused by Pseudomonastomato.
In one trial, various treatments were examined in prevention of disease, as appears in Table IX.

[3] = tested on: Pseudomonas tomato, Xanthomonasvesicatoria, X. translucens, X. camoestris; settings: 0.8% cupric acetate in aqueous solution; each of the four species
Description: G. Evaluation of product activity by direct contact with the bacteria: • The efficacy of a number of products by a direct contact with the bacteria was checked as follows: Preparation of solutions of different concentrations of the examined products. Soaked bacteria suspension in the solutions for a period of 10 minutes. Filtration of the solution containing bacteria through milipore disc, so that the bacteria are concentrated on the disc. Rinsing the disc with distilled water. Placing the disc in a measured amount of water with 0.1 % agar, and shaking the disc in this solution in order to transfer the bacteria from the disc to the solution. Making 10x dilutions and direct placing on suitable medium (see section F1 above).
In this trial, 11 concentrations of cupric-acetate in aqueous solution were checked, from 0.001 - 0.8% by weight. […] All treatments were checked against the four species of bacteria mentioned.

## cupric acetate
Pseudomonas tomato [1]; dipping 10 minutes, 25 °C
  % Infected plants: 28.0%
  Improvement in control, in comparison with the untreated control: 37.8
Pseudomonas tomato [1]; dipping 10 minutes, 40 °C
  % Infected plants: 17.0%
  Improvement in control, in comparison with the untreated control: 62.2
Pseudomonas tomato [1]; dipping 20 minutes, 25 °C
  % Infected plants: 27.5%
  Improvement in control, in comparison with the untreated control: 38.9
Pseudomonas tomato [1]; dipping 20 minutes, 40 °C
  % Infected plants: 14.0%
  Improvement in control, in comparison with the untreated control: 68.9
X. campestris; 25 °C 10 min.
  Percent of infected seedlings: 78.6%
X. campestris; 25 °C 20 min.
  Percent of infected seedlings: 56.0%
X. campestris; 40 °C 10 min.
  Percent of infected seedlings: 45.0%
X. campestris; 40 °C 20 min.
  Percent of infected seedlings: 35.0%
X. campestris; cupric acetate, at any of the trial conditions
  disease control: ≤ 38%
X. translucens; 5 minutes
  Bacteria per gr. seeds: 6040 b per gr. seeds
X. translucens; 10 minutes
  Bacteria per gr. seeds: 2920 b per gr. seeds
X. translucens; 20 minutes
  Bacteria per gr. seeds: 496 b per gr. seeds
X. translucens; cupric acetate, dipping 20 minutes
  control in comparison with the untreated seeds: 94%
Pseudomonas tomato [2]; Cupric acetate 0.1 %, preventative spraying, ten days after the infection
  Percent of ill seedlings: 34.2%
Pseudomonas tomato [2]; 9 days after infection
  Average level of ill seedlings: 0.30
Pseudomonas tomato [2]; 11 days after infection
  Average level of ill seedlings: 1.85
Pseudomonas tomato [2]; 13 days after infection
  Average level of ill seedlings: 2.80
[3]
  bacteria remained alive: about 10^3 bacteria per cm^2 of water
